Tests used:
[1] = test system: Akt^Ser473 phosphorylation; assay: In vivo target modulation (PK/PD) in A2780 xenograft tumors (Biological Method 3); design: species or system nu/nu mice
Source text: A2780 ovarian cancer cells obtained from George Coukos (Fox Chase Cancer Center, University of Pennsylvania, Philadelphia, Pa.) were maintained in DMEM (Invitrogen, Inc.) supplemented with 10% heat-inactivated fetal bovine serum with 1% glutamine. Cells were propagated as recommended by the Dr. Coukos and colleagues. Female nu/nu mice (8-12 weeks old, 20-25 g, Charles River) were used for all in vivo pharmacology studies. The mice were housed and maintained in accordance with state and federal guidelines for the humane treatment and care of laboratory animals and received food and water ad libitum. Cancer cells were harvested from mid-log phase cultures using trypsin-EDTA (Invitrogen, Inc.). […] Tumor volumes were determined by using StudyDirector software.
For PK/PD dose-dependent studies, tumor-bearing mice were given a single oral dose of compound at different concentrations (10, 30, 60 and 100 mg/kg or vehicle) and tumors were resected at 10 hr or 24 hr after dosing. […] Supernatants were taken after centrifugation of tumor lysates at 300×g for 10 min at 4° C. and the protein concentration in each supernatant was determined by BCA (BioRad). […] The density of the positive band on the X-ray film was scanned and the target modulation for each compound was expressed as percentage inhibition by each compound compared to vehicle treatment. […]

[2] = test system: A2780 tumor xenograft; assay: Efficacy study in A2780 ovarian cancer xenograft model (Biological Method 3); assay type: in vivo, nu/nu mice; conditions: oral
Source text: A2780 ovarian cancer cells obtained from George Coukos (Fox Chase Cancer Center, University of Pennsylvania, Philadelphia, Pa.) were maintained in DMEM (Invitrogen, Inc.) supplemented with 10% heat-inactivated fetal bovine serum with 1% glutamine. Cells were propagated as recommended by the Dr. Coukos and colleagues. Female nu/nu mice (8-12 weeks old, 20-25 g, Charles River) were used for all in vivo pharmacology studies. The mice were housed and maintained in accordance with state and federal guidelines for the humane treatment and care of laboratory animals and received food and water ad libitum. Cancer cells were harvested from mid-log phase cultures using trypsin-EDTA (Invitrogen, Inc.). Five million cells were subcutaneously injected into the right flank of each mouse. Compound treatment was initiated when tumor size reached to 300-400 mm^3 for PK/PD studies and 200-300 mm^3 for efficacy studies. All compound treatment was administrated orally. Tumor volumes were determined by using StudyDirector software.
For efficacy studies, A2780 cancer cells (5×10^6 in 100 μl of DMEM culture medium) were injected subcutaneously into the right flank of each nu/nu mouse. […] Tumor growth and animal body weight was measured twice weekly with daily clinical observation to monitor potential toxicities related to the treatment. […]

Structure (SMILES) | Duration of inhibition of Akt^Ser473 (>50% inhibition) [1] [h] | Antitumor activity ([2]; b.i.d., 30 mg/kg (FIG. 5)) | Tumor growth inhibition ([2]; daily, 100 mg/kg)
Nc1cc(C(F)(F)F)c(-c2cc(N3CCOCC3)nc(N3CCOCC3)n2)cn1 [Compound 10] | > 10 | significant antitumor activity | tumor growth stasis
Nc1ncc(-c2cc(OC3CCOCC3)nc(N3CCOCC3)n2)c(C(F)(F)F)n1 [Compound 66] | > 10 |  | 

Reference: patent US8563549B2, “Pyrimidine derivatives used as PI-3 kinase inhibitors” (Novartis AG, priority 2006, dated 2013)
